In experiment [1] the test system is rifampicin-resistant M. tuberculosis strain (rRMP). Nature of the experiment: microbe, parasite or virus in culture. Type of experiment: cell-based, Mycobacterium tuberculosis. The settings on record: for MIC: Mycobacterium tuberculosis, read-out: MABA MIC vs. rRMP, rifampicin-resistant M. tuberculosis strain; for MIC / MABA MIC vs. rRMP: two values per compound; for MABA MIC vs. rRMP: rifampicin-resistant M. tuberculosis strain. (In general: The colour change of resazurin is a common sign of viable cells or microbes.)

For experiment [2], the system named is isoniazide-resistant Mycobacterium tuberculosis strains (rINH). Nature of the experiment: microbe, parasite or virus in culture. Type of experiment: cell-based. The settings on record: for MIC: Mycobacterium tuberculosis, read-out: MABA MIC vs. rINH, isoniazide-resistant strain; for MIC / MABA MIC vs. rINH: two values per compound; for MABA MIC vs. rINH: isoniazide-resistant strain.

Each structure is given as a SMILES string. Values after ≈ are worked out from the molar mass of the structure shown.

Take `COc1ncc(-c2ccccc2)cc1C(c1ccccc1)C(O)(CCN(C)C)c1cccc2ccccc12` (stereo not drawn) [Compound 9, 4-(dimethylamino)-1-(2-methoxy-5-phenylpyridin-3-yl)-2-(naphthalen-1-yl)-1-phenylbutan-2-ol]: in experiment [1], the MIC was found to be 0.9 µM (≈ 0.452 µg/mL) and the “MABA MIC vs. rRMP” value was 0.91 µM. Besides, in experiment [2], the MIC turned out to be 0.47 µM (≈ 0.236 µg/mL) and the “MABA MIC vs. rINH” value was 0.44 µM.
Take `NNC(=O)c1ccncc1` [isoniazide, isoniazid, reference compound]: in experiment [1], the MIC is 0.83 µM (≈ 0.114 µg/mL) and the “MABA MIC vs. rRMP” value amounted to 0.65 µM. Further, the MIC in experiment [2] was greater than 8 µM.
`CO[C@H]1/C=C/O[C@@]2(C)Oc3c(C)c(O)c4c(O)c(c(/C=N/N5CCN(C)CC5)c(O)c4c3C2=O)NC(=O)/C(C)=C\C=C\[C@H](C)[C@H](O)[C@@H](C)[C@@H](O)[C@@H](C)[C@H](OC(C)=O)[C@@H]1C` [rifampin, reference compound]: the MIC in experiment [1] was greater than 4 µM; in experiment [2], less than 0.016 µM.
Regarding `COc1ncc(-c2ccc(Br)cc2)cc1C(c1ccccc1)C(O)(CCN(C)C)c1cccc2ccccc12` (stereo not drawn) [Compound 133, 1-(5-(4-bromophenyl)-2-methoxypyridin-3-yl)-4-(dimethylamino)-2-(naphthalen-1-yl)-1-phenylbutan-2-ol], in experiment [1], the “inhibitory activity against rifampin-resistant strain (in words)” value was “comparable to that of the marketed anti-TB drug, Bedaquiline”; the MIC turned out to be 0.24 µM (≈ 0.14 µg/mL); the “MABA MIC vs. rRMP” value is 0.34 µM. Besides, in experiment [2], the “inhibitory activity against isoniazid-resistant strain (in words)” value is “comparable to that of the marketed anti-TB drug, Bedaquiline”; the MIC was found to be 0.22 µM (≈ 0.128 µg/mL); the “MABA MIC vs. rINH” value is 0.12 µM.
With `COc1nc2ccc(Br)cc2cc1[C@@H](c1ccccc1)[C@@](O)(CCN(C)C)c1cccc2ccccc12` [Bedaquiline, reference compound], in experiment [1], the MIC came to 0.12 µM (≈ 0.0667 µg/mL) and the “MABA MIC vs. rRMP” value came out at 0.13 µM. Besides, in experiment [2], the MIC is 0.07 µM (≈ 0.0389 µg/mL) and the “MABA MIC vs. rINH” value came out at 0.09 µM.
For `COc1ncc(-c2ccc(Cl)cc2)cc1C(c1ccccc1)C(O)(CCN(C)C)c1cccc2ccccc12` (stereo not drawn) [Compound 115, 1-(5-(4-chlorophenyl)-2-methoxypyridin-3-yl)-4-(dimethylamino)-2-(naphthalen-1-yl)-1-phenylbutan-2-ol], in experiment [1], the “inhibitory activity against rifampin-resistant strain (in words)” value is listed as “comparable to that of the marketed anti-TB drug, Bedaquiline” and the MIC amounted to 0.18 µM (≈ 0.0967 µg/mL). Moreover, in experiment [2], the “inhibitory activity against isoniazid-resistant strain (in words)” value was “comparable to that of the marketed anti-TB drug, Bedaquiline”; the MIC turned out to be 0.11 µM (≈ 0.0591 µg/mL); the “MABA MIC vs. rINH” value came out at 0.12 µM.

The record behind these values is US9878982B2, “Pyridine derivatives and anti-mycobacterial use thereof” (priority 2014, dated 2018).
